Data set [1] has as its target acetylcholinesterase (AChE) from third-instar Ae. aegypti larvae (Aedes aegypti, UniProt A4GND7). As to the kind of experiment: acetylcholinesterase inhibition assay. Format: biochemical. The settings on record: based on IC50 values. The protocol:
The in vitro AChE inhibitory activity of the test compounds was assessed according to the method of Perumalsamy et al.[42]. Third-instar Ae. aegypti larvae were used in all experiments. Whole bodies of 50 larvae were homogenized in 1 mL of ice-cold 0.1 M phosphate buffer (pH 8.0) using a glass tissue homogenizer. After filtering through cheesecloth, the homogenate was centrifuged at 1,000 × g at 4 °C for 5 min. The supernatant was used directly as the enzyme source for AChE. The protein levels were determined using the Bradford Protein Assay Kit (Bio-Rad Laboratories, Hercules, CA, USA) using BSA as the standard. The reaction mixture consisted of 50 µL of the crude enzyme preparation (4.3–4.8 µg protein equivalents), 150 µL of 0.1 M phosphate buffer, 20 µL of 3 mM DTNB in phosphate buffer (pH 7.0), and 1 µL of various concentrations of each test compound in ethanol. The reaction mixture was incubated at 30 °C for 5 min, and 20 µL of 32 mM ATChI was then added to the mixture. After incubation for 30 min, the reaction was terminated by adding 20 µL of 5 mM eserine salicylate. Absorbance was recorded at 412 nm using a VersaMax microplate reader (Molecular Devices, Sunnyvale, CA, USA). […] The results are expressed as the means ± standard errors (SEs) of triplicate samples from three independent experiments.
(§1) The concentration of the test compounds required to produce 50% AChE inhibitory activity (IC50) was determined using the SAS 9.13 program (Cary: SAS Institute; 2014). Concentration-mortality data were subjected to probit analysis using the SAS 9.13 program. […] Statistical analyses were performed using the SAS 9.13 program. Multiple linear regression and correlation analysis were performed using the SPSS 24 program (Armonk: IBM Corp.; 2016).

The test system of data set [2] is whole-body homogenate from third-instar Aedes aegypti larvae (adenylate cyclase activity). Briefly: determination of cyclic AMP levels (octopamine-sensitive adenylate cyclase activity). The data set is classed as biochemical. Particulars: 100 μM; compared with control group / octopamine. The protocol: The method of Perumalsamy et al.[42] was used to assess the in vitro octopamine-sensitive adenylate cyclase activity of the test compounds. In brief, whole bodies of 75 Ae. aegypti larvae (106.2 mg) were homogenized in 500 µL of 2 mM Tris-maleate buffer (pH 7.4) containing 0.8 mM ethylene glycol tetraacetic acid (EGTA). The adenylate cyclase activity was determined using the cAMP Biotrak Enzymeimmunoassay system according to the manufacturer’s protocol. The assay was conducted in a total volume of 100 µL containing 80 mM Tris-maleate buffer, 5 mM theophylline, 2 mM MgSO4, 0.5 mM adenosine triphosphate (ATP), 0.2 mM EGTA, 50 µL of whole-body homogenate (equivalent to 4.12 µg protein), and 1 µL of the test compounds in Tris-maleate buffer containing 0.2% ethanol. After incubation at 20 °C for 5 min, the reaction was initiated by addition of ATP. Incubation was performed at 30 °C for 3 min in a shaking water bath. The reaction was stopped by boiling for 2 min, and then, the assay tube was cooled and centrifuged at 8,000 × g for 10 min. Fifty microliters of the supernatant were assayed for cAMP levels.
Polystyrene microplates (1 strip of 8 wells) coated with a goat anti-mouse polyclonal antibody were used. Fifty microliters of a mouse monoclonal antibody solution were added to each well except for the blank wells (or the nonspecific binding wells). The wells covered with the adhesive strip were incubated at 25 °C for 1 h in a shaking incubator (480 rpm). After washing with 400 µL of wash buffer four times, 50 μL of the two neolignan samples for cAMP determination and cAMP standard were added to wells. Control, blank (nonspecific binding), and zero standard wells were supplemented with 50 μL of a diluent RD5-55 buffer. […] The optical densities at 450 and 540 nm were determined using the microplate reader described above. The readings at 540 nm were subtracted from the readings at 450 nm. The cAMP concentrations are expressed as nmol/µg protein. The results are expressed as the means ± SEs of triplicate samples from three independent experiments.

The subject of data set [3] is third-instar larvae of insecticide-susceptible Aedes aegypti. As to the kind of experiment: contact mortality bioassay, 24 h exposure. The data set is classed as in vivo. Particulars: for LC50: Aedes aegypti, 24 h, read-out: LC50 (mg/L) (95% CI). The protocol:
(§2) A contact mortality bioassay[25] was used to evaluate the toxicity of all compounds against third-instar larvae of the four mosquito species. Each test compound in methanol was suspended in DW with Triton X-100 (20 µL/L). Groups of 20 mosquito larvae were separately placed into paper cups (270 mL) containing each compound solution (250 mL). […] Negative controls consisted of a methanol–Triton X-100 solution in DW.
(§3) Treated and control (methanol–Triton X-100 solution only) larvae were maintained under the same conditions as those used for colony maintenance without providing food. Larval mortalities were determined 24 h post-treatment. […] All treatments were performed three times using 20 larvae per replicate.
as §1

Data set [4] deals with third-instar larvae of insecticide-susceptible Culex pipiens pallens. Briefly: contact mortality bioassay, 24 h exposure. The settings on record: for LC50: Culex pipiens, 24 h, read-out: LC50 (mg/L) (95% CI). The data set is classed as in vivo. The protocol:
as §2, §3, §1

Data set [5] has as its system midgut regions of third-instar Ae. aegypti larvae. Briefly: histologic analysis by Carson's trichrome staining. The data set is classed as in vivo, Aedes aegypti. Particulars: honokiol 6.5 mg/L or magnolol 25 mg/L (LC50), 24 h. Here is the method: At 24 h post-treatment, Ae. aegypti larvae untreated and treated with honokiol or magnolol were immediately fixed in Bouin’s fluid[75] at 4 °C for 24 h. Larvae were then dehydrated in an ethanol-tetrahydrofuran-xylene series and embedded in Paraplast X-tra (Sigma-Aldrich). The embedded preparations of the larvae were sectioned at a 5 μm thickness using a Microm HM 340E rotary microtome (Thermo Scientific, Walldorf, Germany). The sections were dried at 40 °C overnight, subsequently deparaffinized with CitriSolv (Fisher Scientific, Fair Lawn, NJ, USA), and rehydrated with a series of ethanol in phosphate-buffered saline (PBS) solutions[30]. The rehydrated sections were stained in Weigert’s iron hematoxylin for 30 s, followed by Carson’s trichrome staining procedure. This staining protocol stained the columnar and goblet cells of the midgut blue and red, respectively. These sections were then dehydrated, cleared in xylene, and mounted in EMS Permount (Electron Microscopy Sciences, Hatfield, PA, USA). Images were observed and captured using a DMIL LED microscope (Leica Microsystems, Wetzlar, Germany) equipped with a Leica MC 170 HD. Observations were taken of 15 larvae under the microscope.

Setting [6] is: Table 7, structure-activity series, 24 h exposure.
[7] abbreviates: Table 3, 24 h exposure, listed as Pure honokiol.
[8] abbreviates: Table 6, structure-activity series, 24 h exposure.
Setting [9] is: Table 2, KS-CP strain, 24 h exposure, listed as Pure honokiol.

≈ marks a conversion by molar mass, not a printed value. Read-outs that look alike come from different tables or passages of the source.

acetylcholinesterase (AChE) from third-instar Ae. aegypti larvae, sequence (A4GND7 37-679): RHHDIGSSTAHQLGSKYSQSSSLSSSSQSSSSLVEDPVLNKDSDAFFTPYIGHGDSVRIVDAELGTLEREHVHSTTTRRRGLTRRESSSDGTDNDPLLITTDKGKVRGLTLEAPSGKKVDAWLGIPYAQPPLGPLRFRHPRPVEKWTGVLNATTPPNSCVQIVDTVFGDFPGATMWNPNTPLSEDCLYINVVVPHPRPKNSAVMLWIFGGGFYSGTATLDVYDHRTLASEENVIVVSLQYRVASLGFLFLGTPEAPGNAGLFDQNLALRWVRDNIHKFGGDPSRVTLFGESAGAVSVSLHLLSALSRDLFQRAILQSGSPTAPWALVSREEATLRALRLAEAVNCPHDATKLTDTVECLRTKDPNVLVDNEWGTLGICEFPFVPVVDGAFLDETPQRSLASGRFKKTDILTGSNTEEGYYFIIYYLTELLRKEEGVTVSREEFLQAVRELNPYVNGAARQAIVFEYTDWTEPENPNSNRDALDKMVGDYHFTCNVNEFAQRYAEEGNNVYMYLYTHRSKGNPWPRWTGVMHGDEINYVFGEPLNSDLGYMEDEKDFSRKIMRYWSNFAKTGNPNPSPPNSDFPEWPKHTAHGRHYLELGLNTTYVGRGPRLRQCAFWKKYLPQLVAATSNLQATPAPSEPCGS

In the case of `C=CCc1ccc(O)c(-c2ccc(O)c(CC=C)c2)c1` [Honokiol, 2-(4-hydroxy-3-prop-2-enyl-phenyl)-4-prop-2-enyl-phenol], the “AChE inhibitory activity (in words)” value in data set [1] is reported as “moderately”. Moreover, in data set [2], the cAMP levels entry is given as “significantly higher than that induced by the control group”. Also, the LC50 was 6.51 mg/L (≈ 24.4 µM) in data set [3] (Table 3, 24 h exposure); 6.51 mg/L (≈ 24.4 µM) in data set [3] (setting [6]); 6.32 mg/L (≈ 23.7 µM) in data set [4] (Table 2, KS-CP strain, 24 h exposure); 6.32 mg/L (≈ 23.7 µM) in data set [4] (setting [8]). For the same molecule, the “LC90 (mg/L) (95% CI)” value in data set [3] (Table 3, 24 h exposure, listed as Natural honokiol) is listed as 22.59 (17.70–34.15) mg/L; in data set [3] (setting [7]), 23.84 (18.41–37.36) mg/L; in data set [4] (Table 2, KS-CP strain, 24 h exposure, listed as Natural honokiol), 18.78 (15.30–25.99) mg/L; in data set [4] (setting [9]), 19.30 (15.64–27.01) mg/L; in data set [4] (setting [8]) it was 18.78 (15.30–25.99) mg/L. Also, the “LC50 (mg/L) (95% CI)” value in data set [3] (setting [7]) was 6.48 (5.11–7.90) mg/L; in data set [4] (setting [9]) it was 6.38 (5.01–7.78) mg/L. Also, the “times less toxic than temephos” value is listed as 521 times in data set [3] (from 24 h LC50 values) and 390 times in data set [4] (from 24 h LC50 values). The “times more toxic than the structural isomer magnolol” value in data set [4] (Cx. pipiens pallens and Ae. aegypti larvae) is on record as “approximately 4 times”. For the same molecule, the “histology of midgut region (Carson's staining)” value in data set [5] was “indistinct damaged midgut epithelial layers”.

On to `C=CCc1ccc(O)c(-c2cc(CC=C)ccc2O)c1` [Magnolol, magnolol], for which, in data set [1], the “AChE inhibitory activity (in words)” value is “strongly”. Further, in data set [2], the cAMP levels entry is “significantly higher than that induced by the control group”. Moreover, in data set [3] (setting [6]), the LC50 was determined as 25.7 mg/L (≈ 96.5 µM) and the “LC90 (mg/L) (95% CI)” value is recorded as 83.14 (64.68–124.4) mg/L. In data set [4] (setting [8]), the LC50 was found to be 26 mg/L (≈ 97.6 µM) and the “LC90 (mg/L) (95% CI)” value was 80.42 (63.28–117.4) mg/L. Further, in data set [5], the “histology of midgut region (Carson's staining)” value was “indistinct midgut epithelial layers and PMs”.

For the origin of these results see paper PMC6344527, “Toxicity and possible mechanisms of action of honokiol from Magnolia denudata seeds against four mosquito species” (Scientific Reports, 2019).
